Assay results published in patent US11072616B2, “Cyclic peptides targeting alpha-4-beta-7 integrin” (Zealand Pharma A/S, priority 2015, dated 2021).

What follows are compounds tested against T1, integrin α4β7 (Homo sapiens, UniProt P13612+P26010) (assay: Integrin α4β7—MAdCAM-1 competition assay (ELISA)). Conditions: ratio a4b1 ELISA IC50 / a4b7 ELISA IC50.
T1 sequence (P13612 34-977 limits assumed): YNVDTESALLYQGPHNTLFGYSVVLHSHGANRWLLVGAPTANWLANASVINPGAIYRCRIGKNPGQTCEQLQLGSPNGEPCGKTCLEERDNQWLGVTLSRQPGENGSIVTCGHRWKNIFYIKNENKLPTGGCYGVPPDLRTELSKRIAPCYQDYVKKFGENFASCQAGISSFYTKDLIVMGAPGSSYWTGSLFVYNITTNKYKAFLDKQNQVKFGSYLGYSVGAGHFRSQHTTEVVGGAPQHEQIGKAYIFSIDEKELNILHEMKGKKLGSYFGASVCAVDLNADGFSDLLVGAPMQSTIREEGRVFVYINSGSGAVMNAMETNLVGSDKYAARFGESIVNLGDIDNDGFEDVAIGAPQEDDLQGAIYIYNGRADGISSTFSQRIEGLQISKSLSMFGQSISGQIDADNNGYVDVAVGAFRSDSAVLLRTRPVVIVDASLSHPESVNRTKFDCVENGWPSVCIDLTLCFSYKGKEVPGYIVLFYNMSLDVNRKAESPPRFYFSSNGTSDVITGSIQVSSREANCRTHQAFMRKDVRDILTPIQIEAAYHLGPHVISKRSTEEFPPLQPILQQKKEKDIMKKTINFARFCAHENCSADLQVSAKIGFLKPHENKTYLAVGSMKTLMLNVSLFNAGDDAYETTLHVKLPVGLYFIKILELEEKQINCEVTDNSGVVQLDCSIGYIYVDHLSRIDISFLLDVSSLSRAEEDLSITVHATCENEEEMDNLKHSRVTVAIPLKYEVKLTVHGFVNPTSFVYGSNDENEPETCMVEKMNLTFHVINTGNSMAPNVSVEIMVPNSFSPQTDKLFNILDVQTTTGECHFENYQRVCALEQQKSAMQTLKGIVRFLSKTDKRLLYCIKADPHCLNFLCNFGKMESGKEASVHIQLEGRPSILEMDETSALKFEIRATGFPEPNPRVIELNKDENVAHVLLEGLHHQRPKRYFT
T1 sequence (P26010 20-723 limits assumed): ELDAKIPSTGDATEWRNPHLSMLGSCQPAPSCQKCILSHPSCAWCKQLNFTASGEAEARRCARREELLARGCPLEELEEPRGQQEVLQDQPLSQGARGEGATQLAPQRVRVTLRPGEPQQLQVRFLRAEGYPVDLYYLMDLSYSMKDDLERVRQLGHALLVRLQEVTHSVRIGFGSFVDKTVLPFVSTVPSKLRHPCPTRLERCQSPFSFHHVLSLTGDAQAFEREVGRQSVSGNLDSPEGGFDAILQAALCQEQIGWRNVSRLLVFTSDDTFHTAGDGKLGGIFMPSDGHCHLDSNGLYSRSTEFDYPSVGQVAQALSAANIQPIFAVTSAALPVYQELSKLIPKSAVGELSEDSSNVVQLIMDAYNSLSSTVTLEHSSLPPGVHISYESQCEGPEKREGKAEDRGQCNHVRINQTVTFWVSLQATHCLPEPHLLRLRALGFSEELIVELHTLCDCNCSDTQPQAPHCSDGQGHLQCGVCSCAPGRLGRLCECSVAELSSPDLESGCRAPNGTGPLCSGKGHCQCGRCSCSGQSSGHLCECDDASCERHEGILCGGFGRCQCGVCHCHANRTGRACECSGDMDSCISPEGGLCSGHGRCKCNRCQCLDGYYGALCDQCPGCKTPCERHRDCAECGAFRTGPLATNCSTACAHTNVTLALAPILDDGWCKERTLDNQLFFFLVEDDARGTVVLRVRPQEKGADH
Type: binding
Experimental: Integrin α4β7—MAdCAM-1 Competition Assay
The plate was incubated at 4° C. overnight. […] The plate was then incubated for 1 hour at room temperature. The plate was washed three times with wash buffer (50 mM Tris, 100 mM NaCl, 1 mM MnCl2, 0.05% Tween). To each well, 50 μl of compound diluted in assay buffer was added by transfer from a compound serial dilution plate. […] The plate was incubated at room temperature with shaking for 2 hours to reach binding equilibrium. Then the plate was washed three times in wash buffer and 100 μl anti-human IgG Fc specific-horseradish peroxidase (HRP) (Abcam, Ab97225) diluted at 1:2000 in assay buffer was added to each well. The plate was incubated at room temperature for 1 hour under agitation. The plates were then washed three times and 100 μl of 1,3′,5,5′-tetramethylbenxidie (TMB) was then added to each well.

Compared with `CC(C)C[C@@H]1NC(=O)c2ccc(-c3cccc4ncccc34)c(c2)CNC(=O)[C@@H]2CCCN2[C@H](C(=O)NC(C)(C)C)[C@H](C)NC(=O)[C@H]([C@@H](C)O)NC(=O)[C@H](CC(=O)O)NC1=O` [Compound 347], `C[C@@H]1NC(=O)[C@H]([C@@H](C)O)NC(=O)[C@H](CC(=O)O)NC(=O)[C@H](CC(C)(C)C)NC(=O)c2ccc(-c3ccnc4ccccc34)c(c2)CNC(=O)[C@@H]2CCCN2[C@@H]1C(=O)NC(C)(C)C` [Compound 355] is higher in “Selectivity ELISA” value: 1.3 for the first, 1.4 for the second.

Compared with `CC(C)C[C@@H]1NC(=O)C[C@H](CCCCN)NC(=O)[C@H](Cc2ccc(I)cc2)NC(=O)[C@@H]2CCCN2[C@H](C(=O)NC(C)(C)C)[C@H](C)NC(=O)[C@H]([C@@H](C)O)NC(=O)[C@H](CC(=O)O)NC1=O` [Compound 260], `COc1cccc(Cl)c1-c1ccc(C[C@@H]2NC(=O)[C@@H]3CCCN3[C@H](C(=O)NC(C)(C)C)[C@H](C)NC(=O)[C@H]([C@@H](C)O)NC(=O)[C@H](CC(=O)O)NC(=O)[C@H](CC(C)C)NC(=O)C[C@H](CCCCN)NC2=O)cc1` [Compound 269] is lower in “Selectivity ELISA” value: 58.1 for the first, 31.6 for the second.

Going from `CC(C)C[C@@H]1NC(=O)CN(C)C(=O)[C@H](Cc2ccc(I)cc2)NC(=O)[C@@H]2CCCN2[C@H](C(=O)NC(C)(C)C)[C@H](C)NC(=O)[C@H]([C@@H](C)O)NC(=O)[C@H](CC(=O)O)NC1=O` [Compound 107] to `CC(C)C[C@@H]1NC(=O)CN(C)C(=O)[C@H](Cc2cccc3ccccc23)NC(=O)[C@@H]2CCCN2[C@H](C(=O)NC(C)(C)C)[C@H](C)NC(=O)[C@H]([C@@H](C)O)NC(=O)[C@H](CC(=O)O)NC1=O` [Compound 117], the “Selectivity ELISA” value falls from 16.0 to 8.7.

Compared with `CC(C)C[C@@H]1NC(=O)[C@H](CCc2ccccc2)NC(=O)[C@@H]2CCCN2[C@H](C(=O)NC(C)(C)C)[C@H](C)NC(=O)[C@H]([C@@H](C)O)NC(=O)[C@H](CC(=O)O)NC1=O` [Compound 6], `CC(C)C[C@@H]1NC(=O)[C@H](Cc2csc(-c3ccncc3)n2)NC(=O)[C@@H]2CCCN2[C@H](C(=O)NC(C)(C)C)[C@H](C)NC(=O)[C@H]([C@@H](C)O)NC(=O)[C@H](CC(=O)O)NC1=O` [Compound 97] is higher in “Selectivity ELISA” value: 1.9 for the first, 2.5 for the second.

Going from `CC[C@H](C)[C@@H]1NC(=O)[C@H](CC(=O)O)NC(=O)[C@H](CC(C)C)NC(=O)C[C@@H](CCCCN)NC(=O)[C@H](Cc2ccccc2)NC(=O)[C@@H]2CCCN2[C@H](C(=O)NC(C)(C)C)[C@H](C)NC1=O` [Compound 220] to `CC(C)C[C@@H]1NC(=O)C[C@H](CCCCN)NC(=O)[C@H](Cc2ccc(O)cc2)NC(=O)[C@@H]2CCCN2[C@H](C(=O)NC(C)(C)C)[C@H](C)NC(=O)[C@H]([C@@H](C)OCc2ccccc2)NC(=O)[C@H](CC(=O)O)NC1=O` [Compound 200], the “Selectivity ELISA” value falls from 18.2 to 2.6.

First: CC(C)C[C@@H]1NC(=O)c2ccc(-c3ccccc3N3CCNCC3)c(c2)CNC(=O)[C@@H]2CCCN2[C@H](C(=O)NC(C)(C)C)[C@H](C)NC(=O)[C@H]([C@@H](C)O)NC(=O)[C@H](CC(=O)O)NC1=O [Compound 348]
Second: CC(C)C[C@@H]1NC(=O)C[C@H](CCCCN)NC(=O)C2(Cc3ccccc3C2)NC(=O)[C@@H]2CCCN2[C@H](C(=O)NC(C)(C)C)[C@H](C)NC(=O)[C@H]([C@@H](C)O)NC(=O)[C@H](CC(=O)O)NC1=O [Compound 288]
The “Selectivity ELISA” value of the first is lower: 1.5 for the first, 12.2 for the second.

First: CC(C)C[C@@H]1NC(=O)C[C@H](CCCCN)NC(=O)[C@](C)(Cc2ccccc2)NC(=O)[C@@H]2CCCN2[C@H](C(=O)NC(C)(C)C)[C@H](C)NC(=O)[C@H]([C@@H](C)O)NC(=O)[C@H](CC(=O)O)NC1=O [Compound 263]
Second: CC(C)C[C@@H]1NC(=O)C[C@H](CCCCN)NC(=O)C2(CCNCC2)NC(=O)[C@@H]2CCCN2[C@H](C(=O)NC(C)(C)C)[C@H](C)NC(=O)[C@H]([C@@H](C)O)NC(=O)[C@H](CC(=O)O)NC1=O [Compound 275]
The “Selectivity ELISA” value of the first is higher: 23.1 for the first, 7.7 for the second.

Compared with `CC(C)C[C@@H]1NC(=O)C2(CCCC2)NC(=O)[C@H](Cc2ccc(O)cc2)NC(=O)[C@@H]2CCCN2[C@H](C(=O)NC(C)(C)C)[C@H](C)NC(=O)[C@H]([C@@H](C)O)NC(=O)[C@H](CC(=O)O)NC1=O` [Compound 104], `C=CCOc1ccc(C[C@@H]2NC(=O)[C@@H]3CCCN3[C@H](C(=O)NC(C)(C)C)[C@H](C)NC(=O)[C@H]([C@@H](C)O)NC(=O)[C@H](CC(=O)O)NC(=O)[C@H](CC(C)C)NC(=O)CNC2=O)cc1` [Compound 163] is higher in “Selectivity ELISA” value: 4.2 for the first, 11.0 for the second.

Going from `CC(C)C[C@@H]1NC(=O)CN(C)C(=O)[C@H](Cc2csc(-c3cccnc3)n2)NC(=O)[C@@H]2CCCN2[C@H](C(=O)NC(C)(C)C)[C@H](C)NC(=O)[C@H]([C@@H](C)O)NC(=O)[C@H](CC(=O)O)NC1=O` [Compound 181] to `CC(C)C[C@@H]1NC(=O)[C@H]2CCCN2C(=O)[C@H](Cc2cc(F)c(F)c(F)c2)NC(=O)[C@@H]2CCCN2[C@H](C(=O)NC(C)(C)C)[C@H](C)NC(=O)[C@H]([C@@H](C)O)NC(=O)[C@H](CC(=O)O)NC1=O` [Compound 128], the “Selectivity ELISA” value falls from 12.6 to 11.4.

Going from `C=CCOc1ccc(C[C@@H]2NC(=O)[C@@H]3CCCN3[C@H](C(=O)NC(C)(C)C)[C@H](C)NC(=O)[C@H]([C@@H](C)O)NC(=O)[C@H](CC(=O)O)NC(=O)[C@H](CC(C)C)NC(=O)[C@@H](CO)NC2=O)cc1` [Compound 167] to `C=CCOc1ccc(C[C@@H]2NC(=O)[C@@H]3CCCN3[C@H](C(=O)NC(C)(C)C)[C@H](C)NC(=O)[C@H]([C@@H](C)O)NC(=O)[C@H](CC(=O)O)NC(=O)[C@H](CC(C)C)NC(=O)[C@@H](C(C)C)NC2=O)cc1` [Compound 166], the “Selectivity ELISA” value falls from 13.6 to 7.7.

Going from `CC(C)C[C@@H]1NC(=O)[C@@H](CCCCN)NC(=O)[C@H](Cc2cccc3ccccc23)NC(=O)[C@@H]2CCCN2[C@H](C(=O)NC(C)(C)C)[C@H](C)NC(=O)[C@H]([C@@H](C)O)NC(=O)[C@H](CC(=O)O)NC1=O` [Compound 120] to `CC(C)C[C@@H]1NC(=O)[C@@H](CCCCN)NC(=O)[C@H](Cc2ccc(-c3ccccc3)cc2)NC(=O)[C@@H]2CCCN2[C@H](C(=O)NC(C)(C)C)[C@H](C)NC(=O)[C@H]([C@@H](C)O)NC(=O)[C@H](CC(=O)O)NC1=O` [Compound 110], the “Selectivity ELISA” value rises from 19.1 to 21.3.

First: CC(C)C[C@@H]1NC(=O)[C@H]2CCCN2C(=O)[C@H](Cc2cc(Br)c(O)c(Br)c2)NC(=O)[C@@H]2CCCN2[C@H](C(=O)NC(C)(C)C)[C@H](C)NC(=O)[C@H]([C@@H](C)O)NC(=O)[C@H](CC(=O)O)NC1=O [Compound 129]
Second: CC(C)C[C@@H]1NC(=O)[C@H](Cc2cccnc2)NC(=O)[C@@H]2C[C@@H](O)CN2[C@H](C(=O)NC(C)(C)C)[C@H](C)NC(=O)[C@H]([C@@H](C)O)NC(=O)[C@H](CC(=O)O)NC1=O [Compound 44]
The “Selectivity ELISA” value of the first is higher: 9.7 for the first, 2.3 for the second.

With `CC(C)C[C@@H]1NC(=O)[C@@H](CCCCN)NC(=O)[C@H](Cc2ccc(O)cc2)NC(=O)[C@@H]2CCCN2[C@H](C(=O)NC(C)(C)C)[C@H](C)NC(=O)[C@H]([C@@H](C)O)N(C)C(=O)[C@H](CC(=O)O)NC1=O` [Compound 121] the “Selectivity ELISA” value was 11.4.
